Experimental data: patent US20100256123A1, “P2X4 RECEPTOR ANTAGONIST” (NIPPON CHEMIPHAR CO., LTD., priority 2006, published 2010)

Target: T1, human P2X4 receptor (Homo sapiens, UniProt Q99571)
T1 sequence (Q99571 1-388): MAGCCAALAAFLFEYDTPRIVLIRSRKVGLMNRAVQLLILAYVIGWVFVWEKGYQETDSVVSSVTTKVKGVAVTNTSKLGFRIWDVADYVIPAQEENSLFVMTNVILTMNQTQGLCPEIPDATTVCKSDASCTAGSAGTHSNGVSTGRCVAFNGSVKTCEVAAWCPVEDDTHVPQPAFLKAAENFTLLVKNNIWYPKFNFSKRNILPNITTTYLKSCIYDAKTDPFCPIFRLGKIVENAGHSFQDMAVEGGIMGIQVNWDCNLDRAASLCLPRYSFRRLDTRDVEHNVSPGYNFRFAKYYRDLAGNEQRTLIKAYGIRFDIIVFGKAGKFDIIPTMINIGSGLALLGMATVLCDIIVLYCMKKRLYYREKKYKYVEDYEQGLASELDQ
Assay: P2X4 receptor antagonism: ATP-induced calcium change (Fura2-AM) in 1321N1 cells stably expressing human P2X4 receptor
Type: cell-based
Conditions: ATP (10 μm)-induced maximal calcium change = 100% control, compound applied 10 minutes before ATP; for Inhibition ratio % (at 10^−5 M): Pharmacological Experimental 2
Protocol: The P2X4 receptor antagonisms of the compounds according to the invention were determined in the following manner.
(§1) 1321N1 cells were transfected human P2X4 receptor-encoding expression vector using a EUGENE 6 transfection reagent (Roche). After cultivation of one week, it was confirmed that P2X4 receptor was stably expressed. Cells were loaded with Fura2-AM calcium fluorescent dye (SIGMA) and the fluorescence changes were monitored using Aqua-Cosmos (Hamamatsu Photonics). ATP (10 μm)-induced maximal […] calcium change was defined as 100% of control response to calculate the inhibition percentage of test compounds at each concentration. Test compounds were treated onto cells 10 minutes before ATP stimulation.
as §1, with “FuGENE” for “EUGENE”
The experimental procedures of Example 10 were repeated.

SMILES	inhibition ratio (at 10^−5M, Pharmacological Experimental 1)	Inhibition ratio % (at 10^−5 M)
O=C1CN=C(c2cccc(O)c2)c2ccc3ccccc3c2N1 [Example 2, 5-(3-Hydroxyphenyl)-1,3-dihydro-2H-naptho-[1,2-e]-1,4-diazepin-2-one]	69%	–
O=C1CN=C(c2ccc(O)cc2)c2ccc3ccccc3c2N1 [Example 4, 5-(4-Hydroxyphenyl)-1,3-dihydro-2H-naptho-[1,2-e]-1,4-diazepin-2-one]	–	53%
O=C1CN=C(c2ccc(O)c(O)c2)c2ccc3ccccc3c2N1 [Example 9, 5-(3,4-Dihydroxyphenyl)-1,3-dihydro-2H-naptho[1,2-e]-1,4-diazepin-2-one]	–	63%
